Experimental data from ChEMBL document CHEMBL3774388, “Synthesis and anti-cancer activity evaluation of 5-(2-carboxyethenyl)-isatin derivatives” (Eur J Med Chem, 2016).
Calls of active or inactive are those of the source. The calls are words filed in the database; no cut-off is given here.

Experiments:
[1] = test system: Jurkat; assay: Anticancer activity against human Jurkat cells after 48 hrs by MTT assay; format: functional, cell-based
[2] = test system: Jurkat; assay: Induction of apoptosis in human Jurkat cells assessed as necrotic cells at 10 nM after 12 hrs by Annexin-V-FITC/PI-staining based flow cytometric analysis (reference value: 0.8%); format: functional
[3] = test system: Jurkat; assay: Induction of apoptosis in human Jurkat cells assessed as viable cells at 10 nM after 12 hrs by Annexin-V-FITC/PI-staining based flow cytometric analysis (reference value: 99.1%); format: functional; conditions: read-out: Activity
[4] = test system: Jurkat; assay: Induction of apoptosis in human Jurkat cells assessed as late apoptotic cells at 10 nM after 12 hrs by Annexin-V-FITC/PI-staining based flow cytometric analysis relative to control; format: functional
[5] = test system: Jurkat; assay: Induction of apoptosis in human Jurkat cells assessed as late apoptotic cells at 30 nM after 12 hrs by Annexin-V-FITC/PI-staining based flow cytometric analysis relative to control; format: functional
[6] = test system: A498; assay: Anticancer activity against human A498 cells after 48 hrs by MTT assay; format: functional, cell-based; conditions: A498, 48 h
[7] = test system: Jurkat; assay: Induction of apoptosis in human Jurkat cells using Z-DEVD-R110 as substrate assessed as caspase3 activation at 30 nM incubated for 18 hrs measured at 48 hrs by fluorescence analysis; format: functional, cell-based
[8] = test system: Jurkat; assay: Induction of apoptosis in human Jurkat cells assessed as increase in cells with reduction in mitochondrial membrane potential at 30 nM after 24 hrs by TMRM-staining based flow cytometric analysis ( Rvb = 7.8%); format: functional; set-up: scale not given: the % may be the effect or the level left
[9] = test system: HeLa; assay: Anticancer activity against human HeLa cells after 48 hrs by MTT assay; format: functional, cell-based
[10] = test system: Jurkat; assay: Induction of apoptosis in human Jurkat cells assessed as necrotic cells at 30 nM after 12 hrs by Annexin-V-FITC/PI-staining based flow cytometric analysis (reference value: 0.8%); format: functional
[11] = test system: HEK293; assay: Cytotoxicity against HEK293 cells after 48 hrs by MTT assay; format: cell-based; conditions: Homo sapiens, HEK293, 48 h
[12] = Anticancer activity against human SKOV3 cells after 48 hrs by MTT assay; format: functional, cell-based; conditions: SK-OV-3, 48 h
[13] = test system: Jurkat; assay: Induction of apoptosis in human Jurkat cells at 10 to 30 nM by Annexin-V-FITC/PI-staining based flow cytometric analysis; format: functional, cell-based; conditions: TDE = time-dependent effect
[14] = test system: MCF7; assay: Anticancer activity against human MCF7 cells after 48 hrs by MTT assay; format: functional, cell-based; conditions: MCF7, 48 h
[15] = test system: NCI-H1299; assay: Anticancer activity against human NCI-H1299 cells after 48 hrs by MTT assay; format: functional, cell-based; conditions: NCI-H1299, 48 h
[16] = Anticancer activity against human BT549 cells after 48 hrs by MTT assay; format: functional, cell-based; conditions: BT-549, 48 h
[17] = test system: Jurkat; assay: Induction of apoptosis in human Jurkat cells assessed as early apoptotic cells at 10 nM after 12 hrs by Annexin-V-FITC/PI-staining based flow cytometric analysis relative to control; format: functional
[18] = test system: Jurkat; assay: Induction of apoptosis in human Jurkat cells assessed as early apoptotic cells at 30 nM after 12 hrs by Annexin-V-FITC/PI-staining based flow cytometric analysis relative to control; format: functional
[19] = test system: HUVEC; assay: Cytotoxicity against HUVEC cells after 48 hrs by MTT assay; format: cell-based; conditions: Homo sapiens
[20] = Anticancer activity against human DU145 cells after 48 hrs by MTT assay; format: functional, cell-based; conditions: DU-145, 48 h
[21] = test system: Jurkat; assay: Induction of apoptosis in human Jurkat cells assessed as increase in cells with reduction in mitochondrial membrane potential at 30 nM after 48 hrs by TMRM-staining based flow cytometric analysis ( Rvb = 7.8%); format: functional; set-up: scale not given: the % may be the effect or the level left
[22] = Anticancer activity against human HCT116 cells after 48 hrs by MTT assay; format: functional, cell-based; conditions: HCT-116, 48 h
[23] = Anticancer activity against human BT474 cells after 48 hrs by MTT assay; format: functional, cell-based; conditions: BT-474, 48 h
[24] = test system: Jurkat; assay: Induction of apoptosis in human Jurkat cells assessed as induction of cell shrinkage and blebbing at 10 and 30 nM incubated for 12 hrs by phase contrast microscopy; format: functional, cell-based
[25] = test system: Jurkat; assay: Induction of apoptosis in human Jurkat cells assessed as viable cells at 30 nM after 12 hrs by Annexin-V-FITC/PI-staining based flow cytometric analysis (reference value: 99.1%); format: functional; conditions: read-out: Activity
[26] = test system: A549; assay: Anticancer activity against human A549 cells after 48 hrs by MTT assay; format: functional, cell-based; conditions: A549, 48 h

CCN1C(=O)C(=O)c2cc(/C=C/C(=O)OC)ccc21
IC50 [1]: 200 nM

COc1ccc(CN2C(=O)C(=O)c3cc(/C=C/C(N)=O)ccc32)cc1
IC50 [1]: 1610 nM

COC(=O)/C=C/c1ccc2c(c1)C(O)C(=O)N2Cc1ccc(OC)cc1 (stereo unspecified)
IC50 [1]: 30 nM

COC(=O)/C=C/c1cccc2c1C(=O)C(=O)N2Cc1ccc(OC)cc1
IC50 [1]: 790 nM

COC(=O)/C=C/c1ccc2c(c1)C(=O)C(=O)N2C
IC50 [1]: 250 nM

COc1ccc(CN2C(=O)C(=O)c3cc(/C=C/C(=O)OC(C)(C)C)ccc32)cc1
IC50 [1]: 310 nM

O=C1C(=O)N(Cc2ccc(Br)cc2)c2ccc(/C=C/C(=O)N3CCCC3)cc21
IC50 [1]: 3190 nM

COc1ccc(CN2C(=O)C(=O)c3cc(/C=C/C(=O)O)ccc32)cc1
IC50 [1]: > 10000 nM

CC(C)(C)OC(=O)/C=C/c1ccc2c(c1)C(=O)C(=O)N2Cc1ccc(Br)cc1
IC50 [1]: 1040 nM

CC[C@@]1(O)C(=O)OCc2c1cc1n(c2=O)Cc2cc3ccccc3nc2-1 [CAMPTOTHECIN]
IC50 [1]: 85 nM

COC(=O)/C=C/c1ccc2c(c1)C1(OCCO1)C(=O)N2Cc1ccc(OC)cc1
IC50 [1]: > 10000 nM

CCCCc1ccc2c(c1)C(=O)C(=O)N2
IC50 [1]: > 10000 nM

CCCCOC(=O)/C=C/c1ccc2c(c1)C(=O)C(=O)N2Cc1ccc(OC)cc1
IC50 [1]: 220 nM

COC(=O)/C=C/c1ccc2c(c1)N(Cc1ccc(OC)cc1)C(=O)C2=O
IC50 [1]: 3110 nM

COC(=O)/C=C/c1ccc2c(c1)CC(=O)N2Cc1ccc(OC)cc1
IC50 [1]: > 10000 nM

COC(=O)/C=C/c1ccc2c(c1)C(=O)C(=O)N2CCOc1ccccc1
IC50 [1]: 200 nM

COC(=O)/C=C/c1ccc2c(c1)C1(OCCO1)C(=O)N2Cc1ccc(Br)cc1
IC50 [1]: > 10000 nM

COC(=O)/C=C/c1ccc2c(c1)CC(=O)N2Cc1ccc(Br)cc1
IC50 [1]: > 10000 nM

COC(=O)/C=C/c1ccc2c(c1)C(=O)C(=O)N2Cc1ccc(OC)cc1
Activity [2]: 1.8% | viability at 0.01 µM [3]: 62.5% | Activity [4]: 7.2% | Activity [5]: 6.5% | IC50 [6]: 5300 nM | Activity [7]: Active | Activity [8]: 32% | IC50 [9]: 9120 nM | Activity [10]: 1.9% | IC50 [11]: > 10000 nM | IC50 [12]: > 10000 nM | Activity [13]: tde | IC50 [14]: 80 nM | IC50 [15]: 30 nM | IC50 [16]: 70 nM | IC50 [1]: 30 nM | Activity [17]: 28.5% | Activity [18]: 35.5% | IC50 [19]: > 10000 nM | IC50 [20]: > 10000 nM | Activity [21]: 81.9% | IC50 [22]: 40 nM | IC50 [23]: 5940 nM | Activity [24]: Active | viability at 0.03 µM [25]: 56.1% | IC50 [26]: > 10000 nM

COC(=O)/C=C/c1ccc2c(c1)/C(=N/O)C(=O)N2Cc1ccc(OC)cc1
IC50 [1]: 9110 nM

Cc1ccc2c(c1)C(=O)C(=O)N2
IC50 [1]: > 10000 nM

COC(=O)/C=C/c1cccc2c1N(Cc1ccc(OC)cc1)C(=O)C2=O
IC50 [1]: > 10000 nM

COC(=O)/C=C/c1ccc2c(c1)C(=O)C(=O)N2Cc1ccc(Cl)cc1
IC50 [1]: 260 nM

COC(=O)/C=C/c1ccc2c(c1)C(=O)C(=O)N2Cc1ccc(Cl)c(Cl)c1
IC50 [1]: 850 nM

O=C1Nc2ccc(F)cc2C1=O [5-FLUOROISATIN]
IC50 [1]: > 10000 nM

NC(=O)/C=C/c1ccc2c(c1)C(=O)C(=O)N2Cc1ccc(Br)cc1
IC50 [1]: 2340 nM

COC(=O)/C=C/c1ccc2c(c1)C(O)C(=O)N2Cc1ccc(Br)cc1 (stereo unspecified)
IC50 [1]: 1230 nM

COC(=O)/C=C/c1ccc2c(c1)/C(=N/O)C(=O)N2Cc1ccc(Br)cc1
IC50 [1]: 5860 nM

COC(=O)/C=C/c1ccc2c(c1)C(=O)C(=O)N2Cc1ccc(F)cc1
IC50 [1]: 380 nM

COC(=O)/C=C/c1ccc2c(c1)C(=O)C(=O)N2Cc1ccc(C#N)cc1
IC50 [1]: 80 nM

COc1ccc(CN2C(=O)C(=O)c3cc(/C=C/C(=O)N4CCCC4)ccc32)cc1
IC50 [1]: 2240 nM

COC(=O)/C=C/c1ccc2c(c1)C(=O)C(=O)N2Cc1ccc2ccccc2c1
IC50 [1]: 640 nM

COc1ccc(CN2C(=O)C(=O)c3cc(/C=C/C(=O)N4CCOCC4)ccc32)cc1
IC50 [1]: 4550 nM

COC(=O)/C=C/c1ccc2c(c1)C(=O)C(=O)N2Cc1ccccc1
IC50 [1]: 70 nM

O=C1Nc2ccc(Cl)cc2C1=O
IC50 [1]: > 10000 nM

COC(=O)/C=C/c1ccc2c(c1)C(=O)C(=O)N2Cc1cccc(Br)c1
IC50 [1]: 120 nM

CCOC(=O)/C=C/c1ccc2c(c1)C(=O)C(=O)N2Cc1ccc(OC)cc1
IC50 [1]: 30 nM

O=C1C(=O)N(Cc2ccc(Br)cc2)c2ccc(/C=C/C(=O)N3CCOCC3)cc21
IC50 [1]: 1430 nM

O=C1Nc2ccc(Br)cc2C1=O
IC50 [1]: > 10000 nM

CCOC(=O)/C=C/c1ccc2c(c1)C(=O)C(=O)N2Cc1ccc(Br)cc1
IC50 [1]: 70 nM

CCCCOC(=O)/C=C/c1ccc2c(c1)C(=O)C(=O)N2Cc1ccc(Br)cc1
IC50 [1]: 700 nM

COC(=O)/C=C/c1ccc2c(c1)C(=O)C(=O)N2
IC50 [1]: 200 nM

COC(=O)/C=C/c1ccc2c(c1)C(=O)C(=O)N2Cc1cc(C)cc(C)c1
IC50 [1]: 620 nM

COC(=O)/C=C/c1ccc2c(c1)C(=O)C(=O)N2Cc1ccc(Br)cc1
IC50 [1]: 60 nM

COc1ccc2c(c1)C(=O)C(=O)N2 [5-METHOXYISATIN]
IC50 [1]: > 10000 nM

O=C1Nc2ccccc2C1=O [ISATIN]
IC50 [1]: > 10000 nM

COc1ccc(CN2C(=O)C(=O)c3cc(/C=C/C(=O)OCCO)ccc32)cc1
IC50 [1]: 500 nM

O=C(/C=C/c1ccc2c(c1)C(=O)C(=O)N2Cc1ccc(Br)cc1)OCCO
IC50 [1]: 400 nM

COC(=O)/C=C/c1ccc2c(c1)C(=O)C(=O)N2Cc1ccc(C(F)(F)F)cc1
IC50 [1]: 360 nM

COC(=O)/C=C/c1ccc2c(c1)C(=O)C(=O)N2Cc1ccc(C)cc1
IC50 [1]: 50 nM

COC(=O)/C=C/c1ccc2c(c1)C(=O)C(=O)N2Cc1ccccc1Br
IC50 [1]: 800 nM
